Where “and” joins values, the source holds several entries; their conditions need not be identical. Identical values can stand only once. ± gives the standard deviation of the averaged measurements.
Tested on: SW620
Experiment: cell viability relative to lowest-dose well (resazurin, 96 h); higher = more viable
Conditions: RPMI + 10% FBS
Summary of the method: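 HCT116 (500 cells/well) or SW620 (1,000 cells/well) cells were seeded in 50 µl RPMI with 10% FBS plus a metabolite supplement in 384-well plates. Compounds were dispensed from 10 mM DMSO stocks as dilution series, and plates were incubated 96 h at 37 °C, 5% CO2. Viability was read as resazurin (10 µg ml^−1) conversion to resorufin after 5 h, by fluorescence at 595 nm. Values are percent of the lowest-dose well, with independent replicate cultures.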

O=c1[nH]cc(F)c(=O)[nH]1 [5-fluorouracil]
cell viability
Conditions	0.0001 M	0.01 µM	0.0278 µM	0.0774 µM	0.215 µM	0.599 µM	1.67 µM	4.64 µM	12.9 µM	35.9 µM
metabolite supplement: 1uM folinic acid	6.83 ± 1.4%	102 ± 1.5%	100.2 ± 1%	100 ± 1.6%	99.7 ± 3.2%	99 ± 3.9%	83.6 ± 3.9%	48.8 ± 6.7%	26.2 ± 4.8%	12 ± 2.2%
metabolite supplement: 50uM thymidine	6.07% and 5.27%	106 ± 5.3%	99.3 ± 8.8%	97.1 ± 7.4%	96.7 ± 11%	94.2 ± 11%	74.8 ± 6.8%	49.1 ± 8.9%	26.6% and 22.5%	10.4 ± 2.5%
metabolite supplement: 50uM thymidine + 1uM folinic acid	7.17 ± 1.8%	105 ± 11%	106 ± 11%	103 ± 10%	103 ± 10%	100 ± 9%	83.2 ± 9.2%	51.5 ± 7%	26.3 ± 6.1%	11.6 ± 2.7%
metabolite supplement: 50uM thymidine + 250uM folic acid	6.77 ± 0.21%	–	–	–	–	97.8 ± 1.9%	79.1 ± 5.9%	52.8 ± 2%	26.3 ± 2.8%	11.7 ± 0.68%
metabolite supplement: 250uM folic acid	6.37 ± 0.25%	–	–	–	–	–	83.4 ± 5.1%	51.4 ± 4.3%	27.3 ± 2.3%	11.9 ± 0.55%
metabolite supplement: vehicle	6.87% and 5.97%	99.5 ± 2.1%	99.5 ± 4.3%	101 ± 2.7%	97.4 ± 1.6%	95.9% and 98.1%	80.3 ± 1.1%	53 ± 6.4%	29.5% and 26.5%	11.6 ± 2.5%

— the supplement of paper PMC10132981, “Formate overflow drives toxic folate trapping in MTHFD1 inhibited cancer cells” (Nature Metabolism, 2023)
